Broadly, the IC50 is the point on the concentration scale where inhibition reaches its midpoint.

The values that follow come from US20240294551A1 (AMGEN INC., priority 2022, published 2024).

Test [1] addresses His-tagged KRAS G12D protein (Homo sapiens (Human), UniProt P01116, G12D). The experiment in a line: KRAS G12D TR-FRET Assay. The class given is binding. To be noted: read-out: KRAS G12D Binding IC50. In a few lines:
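Each incubation ran at room temperature: enzyme with compound for 30 minutes, peptide for one hour, and detection reagents (0.4 nM europium anti-6×His, 5 nM streptavidin-d2) for one hour more. Protein and peptide stocks were each diluted to 20 nM before addition.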
On the technique in general: Time-resolved FRET reads energy transfer from a long-lived donor to a nearby acceptor.

The target in test [2] is GDP-bound KRAS protein (aa 1-169), containing both G12D and C118A amino acid substitutions (Homo sapiens (Human), UniProt P01116, C118A/G12D). Description: KRAS G12D Coupled Nucleotide Exchange Assay. In kind it is biochemical. The note with it: read-out: KRAS G12D Coupled Exchange IC50.
Test [3] concerns Phosphorylation of ERK1/2 in AsPC-1 cells. The experiment in a line: Phospho-ERK1/2 MSD Assay. The class given is cell-based, human. To be noted: Homo sapiens, ASPC1, 2 h, read-out: 2 h p-ERK (AsPC-1 cells), IC50. The protocol: AsPC-1 (ATCC® CRL-1682™) cells were cultured in RPMI 1640 Medium (ThermoFisher Scientific 11875093) containing 10% fetal bovine serum (ThermoFisher Scientific 16000044) and 1× penicillin-streptomycin-glutamine (ThermoFisher Scientific 10378016). Sixteen hours prior to compound treatment, AsPC-1 cells were seeded in 96-well cell culture plates at a density of 25,000 cells/well and incubated at 37° C., 5% CO2. A compound dose-response titration was diluted in growth media, added to appropriate wells of a cell culture plate, and then incubated at 37° C., 5% CO2 for 2 hours. Following compound treatment, cells were washed with ice-cold Dulbecco's phosphate-buffered saline, no Ca^2+ or Mg^2+ (ThermoFisher Scientific 14190144), and then lysed in RIPA buffer (50 mM Tris-HCl pH 7.5, 1% Igepal, 0.5% sodium deoxycholate, 150 mM NaCl, and 0.5% sodium dodecyl sulfate) containing protease inhibitors (Roche 4693132001) and phosphatase inhibitors (Roche 4906837001). Phosphorylation of ERK1/2 in compound-treated lysates was assayed using Phospho-ERK1/2 Whole Cell Lysate kits (Meso Scale Discovery K151DWD) according to the manufacturer's protocol. Assay plates were read on a Meso Scale Discovery Sector Imager 6000, and data were analyzed using a 4-parameter logistic model to calculate IC50 values.

Sequence of His-tagged KRAS G12D protein (P01116 other isoform, or with tags, fused parts or gaps G12D): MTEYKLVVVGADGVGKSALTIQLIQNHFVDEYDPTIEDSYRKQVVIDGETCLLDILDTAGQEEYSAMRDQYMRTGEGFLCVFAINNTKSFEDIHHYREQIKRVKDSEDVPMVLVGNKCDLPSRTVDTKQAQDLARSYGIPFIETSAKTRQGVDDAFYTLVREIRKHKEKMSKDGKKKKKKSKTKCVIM
Sequence of GDP-bound KRAS protein (aa 1-169), containing both G12D and C118A amino acid substitutions (P01116 other isoform, or with tags, fused parts or gaps G12D/C118A): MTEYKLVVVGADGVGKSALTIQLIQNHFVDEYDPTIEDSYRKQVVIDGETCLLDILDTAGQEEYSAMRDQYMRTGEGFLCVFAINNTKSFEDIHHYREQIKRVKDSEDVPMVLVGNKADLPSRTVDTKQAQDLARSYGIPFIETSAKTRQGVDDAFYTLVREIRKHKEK

With `Cc1cc2[nH]ncc2c2c1CCCCC(=O)N[C@@H]1CCCN(C1)c1nc(OC[C@@]34CCCN3C[C@H](F)C4)nc3c(F)c-2ncc13.O=C(O)C(F)(F)F` [Example 48, (17R)-30-fluoro-24-(((2R,7aS)-2-fluorotetrahydro-1H-pyrrolo[1,2-a]pyrrol-7a(5H)-yl)methoxy)-9-methyl-5,6,16,21,23,25,29-heptaazahexacyclo[24.3.1.1˜17,21˜.0˜2,10˜.0˜3,7˜.0˜22,27˜]hentriaconta-1(30),2,4,7,9,22,24,26,28-nonaen-15-one 2,2,2-trifluoroacetate], the IC50 in test [1] is 14 nM; in test [2], 13 nM; in test [3] it was 931 nM.
`Cc1cc2[nH]ncc2c2c1CCCCC(=O)N(C)[C@@H]1CCCN(C1)c1nc(OC[C@@]34CCCN3C[C@H](F)C4)nc3c(F)c-2ncc13` [Example 50, (17R)-30-fluoro-24-(((2R,7aS)-2-fluorotetrahydro-1H-pyrrolo[1,2-a]pyrrol-7a(5H)-yl)methoxy)-9,16-dimethyl-5,6,16,21,23,25,29-heptaazahexacyclo[24.3.1.1~17,21~.0~2,10~.0~3,7~.0~22,27~]hentriaconta-1(30),2,4,7,9,22,24,26,28-nonaen-15-one]: the IC50 in test [1] was found to be 7 nM; in test [2] it was 4 nM; in test [3] it was 169 nM.
Take `Cc1cc2[nH]ncc2c2c1CCC[C@H](F)C(=O)N(C)[C@@H]1CCCN(C1)c1nc(OC[C@@]34CCCN3C[C@H](F)C4)nc3c(F)c-2ncc13` [Example 51, (14S,17R)-14,30-difluoro-24-(((2R,7aS)-2-fluorotetrahydro-1H-pyrrolo[1,2-a]pyrrol-7a(5H)-yl)methoxy)-9,16-dimethyl-5,6,16,21,23,25,29-heptaazahexacyclo[24.3.1.1~17,21~.0~2,10~.0~3,7~.0~22,27~]hentriaconta-1(30),2,4,7,9,22,24,26,28-nonaen-15-one]: the figures for the IC50 in test [1], in test [2] and in test [3] were 10 nM, 5 nM and 356 nM, respectively.
As to `Cc1cc2[nH]ncc2c2c1CCC[C@@H](F)C(=O)N(C)[C@@H]1CCCN(C1)c1nc(OC[C@@]34CCCN3C[C@H](F)C4)nc3c(F)c-2ncc13` [Example 52, (14R,17R)-14,30-difluoro-24-(((2R,7aS)-2-fluorotetrahydro-1H-pyrrolo[1,2-a]pyrrol-7a(5H)-yl)methoxy)-9,16-dimethyl-5,6,16,21,23,25,29-heptaazahexacyclo[24.3.1.1~17,21~.0~2,10~.0~3,7~.0~22,27~]hentriaconta-1(30),2,4,7,9,22,24,26,28-nonaen-15-one], the IC50 in test [1] stood at 19 nM; in test [2] it was 12 nM; in test [3], 403 nM.
For `Cc1cc2[nH]ncc2c2c1CCCCC(=O)N1CC3(CCCN(C3)c3nc(OC[C@@]45CCCN4C[C@H](F)C5)nc4c(F)c-2ncc34)C1` [Example 56, 32-fluoro-24-(((2R,7aS)-2-fluorotetrahydro-1H-pyrrolo[1,2-a]pyrrol-7a(5H)-yl)methoxy)-10-methyl-3,13,14,19,23,25,27-heptaazaheptacyclo[25.3.1.1~1,3~.1~18,22~.0~9,17~.0~12,16~.0~21,26~]tritriaconta-9,11,14,16,18(32),19,21,23,25-nonaen-4-one], the IC50 in test [1] is 20 nM; in test [2] it was 11 nM; in test [3], 2320 nM.
In the case of `O=C1CCCCc2c(Cl)cc3[nH]ncc3c2-c2ncc3c(nc(OC[C@@]45CCCN4C[C@H](F)C5)nc3c2F)N2CC[C@@H]3CCN1[C@@H]3C2` [Example 61, (28R,32S)-18-chloro-33-fluoro-4-(((2R,7aS)-2-fluorotetrahydro-1H-pyrrolo[1,2-a]pyrrol-7a(5H)-yl)methoxy)-1,3,5,9,14,15,25-heptaazaheptacyclo[23.5.2.1~6,10~.0~2,7~.0~11,19~.0~12,16~.0~28,32~]tritriaconta-2,4,6,8,10(33),11,13,16,18-nonaen-24-one], the IC50 in test [1] amounted to 79 nM; in test [2] it was 34 nM; in test [3], 70 nM.
